Test results from ChEMBL document CHEMBL1914428, “Investigating the role of the hydroxyl groups of substrate erythrose 4-phosphate in the reaction catalysed by the first enzyme of the shikimate pathway” (Bioorg Med Chem Lett, 2011).
Calls of active or inactive are those of the source. No cut-off for these calls is given here.

How the values were obtained:
[1] = system: Mycobacterium tuberculosis; experiment: Ratio of Kcat to Km of Mycobacterium tuberculosis DAH7P synthase type 2
[2] = system: Mycobacterium tuberculosis; experiment: Activity of Mycobacterium tuberculosis DAH7P synthase type 2 by spectrophotometry in the presence of Mn2+
Pyrococcus furiosus [3] = experiment: Ratio of Kcat to Km of Pyrococccus furiosus DAH7P synthase type 1beta
Escherichia coli [4] = experiment: Ratio of Kcat to Km of Escherichia coli phenylalanine-sensitive DAH7P synthase type 1alpha
Pyrococcus furiosus [5] = experiment: Activity of Pyrococccus furiosus DAH7P synthase type 1beta by spectrophotometry in the presence of Mn2+
Escherichia coli [6] = experiment: Activity of Escherichia coli phenylalanine-sensitive DAH7P synthase type 1alpha by spectrophotometry in the presence of Mn2+
Pyrococcus furiosus [7] = experiment: Inhibition of Pyrococccus furiosus DAH7P synthase type 1beta

| SMILES | kcat/Km [1] [M⁻¹ s⁻¹] | Km [2] [µM] | kcat [2] [s⁻¹] | kcat/Km (Pyrococcus furiosus [3]) [M⁻¹ s⁻¹] | kcat/Km (Escherichia coli [4]) [M⁻¹ s⁻¹] | Km (Pyrococcus furiosus [5]) [µM] | kcat (Pyrococcus furiosus [5]) [s⁻¹] | Km (Escherichia coli [6]) [µM] | kcat (Escherichia coli [6]) [s⁻¹] | inhibition (Pyrococcus furiosus [7]) |
| --- | --- | --- | --- | --- | --- | --- | --- | --- | --- | --- |
| O=C[C@H](O)[C@H](O)COP(=O)(O)O | 150000 | 37 | 5.4 | 160000 | 670000 | 9 | 1.4 | 39 | 26 |  |
| O=CC[C@H](O)COP(=O)(O)O | 110000 | 46 | 4.9 | 500000 | 60000 | 6 | 3 | 410 | 25 |  |
| O=C[C@H](O)CCOP(=O)(O)O | 31000 | 77 | 2.4 | 11000 | 2000 | 200 | 2.1 | 2700 | 4.5 |  |
| O=CC(O)CCOP(=O)(O)O (racemic) |  |  |  |  |  |  |  | 2600 |  | Active |
